ChEMBL document CHEMBL1123460, “Synthesis and biochemical properties of 8-amino-6-fluoro-9-beta-D-ribofuranosyl-9H-purine” (J Med Chem, 1986)

Legend:
[1] = Compound was evaluated for the apparent Km value.; type: ADME
[2] = test system: L1210; assay: Compound was evaluated for the cytotoxicity against L1210 cells in absence of coformycin; type: functional, cell-based; settings: Mus musculus
[3] = test system: L1210; assay: Compound was evaluated for the cytotoxicity against L1210 cells in presence of coformycin; type: functional, cell-based; settings: Mus musculus
[4] = test system: L1210; assay: Compound was evaluated for the cytotoxicity against L1210 cells.; type: functional, cell-based; settings: Mus musculus
[5] = test system: HEp-2; assay: Compound was evaluated for the cytotoxicity against H.Ep.-2 cells.; type: functional, cell-based; settings: Homo sapiens

SMILES | Km [1] [µM] | IC50 [2] [nM] | IC50 [3] [nM] | IC50 [4] [nM] | IC50 [5] [nM]
Nc1ncnc2c1ncn2[C@@H]1O[C@H](CO)[C@@H](O)[C@H]1O [ADENOSINE] | 29 |  |  |  | 
OC[C@H]1O[C@@H](n2cnc3c2N=CNC[C@H]3O)C[C@@H]1O [PENTOSTATIN] |  | 1900 | 250 |  | 
Nc1nc2c(F)ncnc2n1C1O[C@H](CO)[C@@H](O)[C@H]1O (stereo partly specified) | 1000 |  |  | 1900 | 1800
